The source of these data is paper PMC6934184, “Selective DNA-PKcs inhibition extends the therapeutic index of localized radiotherapy and chemotherapy” (The Journal of Clinical Investigation, 2019).

This test concerns the target T1, DYRK4 (Homo sapiens, UniProt Q9NR20).
T1 construct: purchased Thermo Fisher Scientific (Life Technologies) SelectScreen
The experiment in a line: SelectScreen Z'LYTE. The class given is biochemical. The procedure, abridged: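 Compound tested in SelectScreen activity assays, Z'LYTE for CSF1R, CDK1/cyclin B and MAP2K6 and Adapta for CAMK1. ATP for CAMK1 was listed as 10, and Km app was used for CSF1R. Results are expressed in percent.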

T1 sequence (Q9NR20 whole entry): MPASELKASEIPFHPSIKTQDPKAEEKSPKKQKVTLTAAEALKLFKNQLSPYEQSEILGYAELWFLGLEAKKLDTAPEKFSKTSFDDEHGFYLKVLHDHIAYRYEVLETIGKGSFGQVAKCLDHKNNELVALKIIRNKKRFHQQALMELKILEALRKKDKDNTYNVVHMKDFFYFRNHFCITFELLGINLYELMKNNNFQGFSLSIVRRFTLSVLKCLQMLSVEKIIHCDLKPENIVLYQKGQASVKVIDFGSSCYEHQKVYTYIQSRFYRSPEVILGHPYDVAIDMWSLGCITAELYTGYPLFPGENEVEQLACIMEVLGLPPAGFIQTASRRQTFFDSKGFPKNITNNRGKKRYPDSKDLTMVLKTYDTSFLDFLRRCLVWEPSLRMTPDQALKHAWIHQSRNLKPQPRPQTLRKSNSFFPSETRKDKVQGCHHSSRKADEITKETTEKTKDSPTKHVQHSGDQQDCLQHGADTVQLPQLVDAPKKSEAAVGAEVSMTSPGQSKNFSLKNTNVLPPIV

As for `CN(C(=O)CN1CCOCC1)c1ccc2sc3c(-c4cccc5c(=O)cc(N6CC7CCC(C6)O7)oc45)cccc3c2c1` [NU5455], the inhibition at 1 µM came to 0.3%.
